Here are results for six molecules from patent US8541462B2, “Tetrahydrocarbazole derivatives as ligands of G-protein coupled receptors” (AEterna Zentaris GmbH, priority 2007, dated 2013).

For data set [1], the target named is T1, LHRH receptor (endogenous GnRH receptor of alpha T3-1 cell line) (Mus musculus, UniProt Q01776).
T1 construct: alpha T3-1 cell line with endogenous GnRH receptor expression; endogenous in cells; host or cells: alpha T3-1 cells (intact cell suspension)
T1 sequence (Q01776 1-327): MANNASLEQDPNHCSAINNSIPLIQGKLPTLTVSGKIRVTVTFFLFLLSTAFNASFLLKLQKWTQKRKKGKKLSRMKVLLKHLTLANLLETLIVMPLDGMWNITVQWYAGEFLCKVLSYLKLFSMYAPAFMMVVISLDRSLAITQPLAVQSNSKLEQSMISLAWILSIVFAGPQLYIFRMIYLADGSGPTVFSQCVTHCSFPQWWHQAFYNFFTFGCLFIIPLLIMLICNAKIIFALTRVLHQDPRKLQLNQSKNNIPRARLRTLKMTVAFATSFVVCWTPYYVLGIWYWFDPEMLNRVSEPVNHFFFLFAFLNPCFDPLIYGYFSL
Kind of data set: LHRH-receptor binding assay (displacement of [125I] cetrorelix on alpha T3-1 cells). To be noted: WO 2006/005484-substance 75 = 100%. The method, then:
For LHRH receptor binding studies, an assay system using alpha T3-1 cell line with endogenous GnRH receptor expression was employed (Windle et al., Mol. Endocrinol. 1990, 4(4): 597-603).
Iodinated cetrorelix was used as a tracer with about 80% of peptide capable of specific receptor association.
For displacement binding assays, the cells were incubated with approximately 200 pM [^125l] cetrorelix and different concentrations of unlabeled test compounds as competitor. The cell suspension in binding medium was layered on top of silicon/paraffin oil, incubated for 60 min at 37° C. and separated by centrifugation. The tips of the tubes containing the cell pellet were cut off, subsequently cell pellet and supernatant were analyzed by gamma-radiation analysis.
The amount of unspecific binding was determined by including unlabeled cetrorelix at 1 μM final concentration and was typically ≦10% of total binding. IC50 values were calculated by using the GraphPad Prism analysis program (GraphPad Software Inc.).

Data set [2] is described as follows: Metabolic stability testing in liver microsomes. Type of data set: in vitro ADME. The note with it: mixed-gender human liver microsomes, 1 mg microsomal protein/mL, initial concentration 10 μM, 60 minutes at 37° C.; WO 2006/005484-substance 7 = 100%. The procedure:
Subcellular fractions of different tissues can be prepared easily by ultracentrifugation. Most commonly these are prepared from the liver of animals and human donors to gain information about the potential hepatic clearance of compounds (first-pass elimination of drugs). Human or animal (e.g. dog, mouse, rat) subcellular fraction like liver microsomes, or possibly the fraction called S9 have therefore become a very commonly and widely used as an in vitro model to investigate mainly cytochrome P450 dependent phase I (but also phase II) metabolism that takes place in the liver.
In order to reflect the standard proportion of the enzymes in human and animal livers, liver microsomes are usually pooled from a number of […] of the same sex (or mixed-gender). By supplementing the liver microsomes with relevant cofactors and other components it is possible to investigate and distinguish between CYPs, flavin-containing monooxygenase (FMO) and UDP-glucuronosyltransferase (UGT) activities.
Selected compounds of the invention were tested for their stability in mixed-gender human liver microsomes and compared to pertinent prior art compounds.
Under the test conditions applied (1 mg microsomal protein/mL, initial concentration of 10 μM, and incubation for 60 minutes at 37° C.) the following normalized results were obtained.

As for `CCC(C)[C@H](NC(=O)Cc1ccccc1F)C(=O)N[C@]1(C(=O)N[C@H](C(=O)Nc2nnn(C(C)(C)C)n2)C(C)CC)CCc2[nH]c3c(C(F)(F)F)cccc3c2C1` (stereo partly drawn) [compound 178, (R)-3-{(S)-2-[2-(2-Fluoro-phenyl)-acetylamino]-3-methyl-pentanoylamino}-8-trifluoromethyl-2,3,4,9-tetrahydro-1H-carbazole-3-carboxylic acid [(S)-1-(2-tert-butyl-2H-tetrazol-5-ylcarbamoyl)-2-methyl-butyl]-amide], the “Normalized Affinity” value in data set [1] was determined as 370%.
`CCC(C)[C@H](NC(=O)Cc1ccccc1F)C(=O)N[C@]1(C(=O)N[C@H](C(=O)Nc2ccc(OC)cc2O)C(C)CC)CCc2[nH]c3c(C(F)(F)F)cccc3c2C1` (stereo partly drawn) [Compound 71, (R)-3-{(S)-2-[2-(2-Fluoro-phenyl)-acetylamino]-3-methyl-pentanoylamino}-8-trifluoromethyl-2,3,4,9-tetrahydro-1H-carbazole-3-carboxylic acid [(S)-1-(2-hydroxy-4-methoxy-phenylcarbarnoyl)-2-methyl-butyl]-amide]: in data set [1], the “Normalized Affinity” value was 411%.
Molecule `CCC(C)[C@H](NC(=O)Cc1ccccc1F)C(=O)N[C@]1(C(=O)N[C@H](C(=S)NCCCn2ccnc2)C(C)CC)CCc2[nH]c3c(C(F)(F)F)cccc3c2C1` (stereo partly drawn) [Compound 74, (R)-3-{(S)-2-[2-(2-Fluoro-phenyl)-acetylamino]-3-methyl-pentanoylamino}-8-trifluoromethyl-2,3,4,9-tetrahydro-1H-carbazole-3-carboxylic acid [(S)-1-(3-imidazol-1-yl-propylthiocarbamoyl)-2-methyl-butyl]-amide] yielded a Normalized microsomal stability in data set [2] of 1889%. For the same molecule, the “Normalized Affinity” value in data set [1] was determined as 247%.
`CCC(C)[C@H](NC(=O)Cc1ccccc1F)C(=O)N[C@]1(C(=O)N[C@H](C(=O)Nc2ccc(OC)c(O)c2)C(C)CC)CCc2[nH]c3c(C(F)(F)F)cccc3c2C1` (stereo partly drawn) [Compound 69, (R)-3-{(S)-2-[2-(2-Fluoro-phenyl)-acetylamino]-3-methyl-pentanoylamino}-8-trifluoromethyl-2,3,4,9-tetrahydro-1H-carbazole-3-carboxylic acid [(S)-1-(3-hydroxy-4-methoxy-phenylcarbamoyl)-2-methyl-butyl]-amide]: in data set [2], the Normalized microsomal stability is 1041%. Also, the “Normalized Affinity” value in data set [1] is recorded as 529%.
As for `CCC(C)[C@H](NC(=O)Cc1ccccc1F)C(=O)N[C@]1(C(=O)N[C@H](C(=S)NCc2nnc(C)o2)C(C)CC)CCc2[nH]c3c(C(F)(F)F)cccc3c2C1` (stereo partly drawn) [compound 118, (R)-3-{(S)-2-[2-(2-Fluoro-phenyl)-acetylamino]-3-methyl-pentanoylamino}-8-trifluoromethyl-2,3,4,9-tetrahydro-1H-carbazole-3-carboxylic acid {(S)-2-methyl-1-[(5-methyl-[1,3,4]oxadiazol-2-ylmethyl)-thiocarbamoyl]-butyl}-amide], the “Normalized Affinity” value in data set [1] is given as 285%.
Take `CCC(C)[C@H](NC(=O)Cc1ccccc1F)C(=O)N[C@]1(C(=O)N[C@H](C(=S)NCc2ccncc2)C(C)CC)CCc2[nH]c3c(C(F)(F)F)cccc3c2C1` (stereo partly drawn) [Compound 60, (R)-3-{(S)-2-[2-(2-Fluoro-phenyl)-acetylamino]-3-methyl-pentanoylamino}-8-trifluoromethyl-2,3,4,9-tetrahydro-1H-carbazole-3-carboxylic acid {(S)-2-methyl-1-[(pyridin-4-ylmethyl)-thiocarbamoyl]-butyl}-amide]: the “Normalized Affinity” value in data set [1] is 247%.
